Assay results as given in ChEMBL document CHEMBL1155727, “Prunioside A: a new terpene glycoside from Spiraea prunifolia” (J Nat Prod, 2001).
Calls of active or inactive are those of the source. The calls are words filed in the database; no cut-off is given here.

Legend:
Assay type in all cases: functional, cell-based
RAW264.7 [1] = experiment: Antiinflammatory activity in LPS-stimulated mouse RAW264.7 cells assessed as inhibition of nitric oxide production after 18 hrs by Griess reagent-based ELISA
RAW264.7 [2] = experiment: Antiinflammatory activity in IFN-gamma-stimulated mouse RAW264.7 cells assessed as inhibition of nitric oxide production after 18 hrs by Griess reagent-based ELISA
RAW264.7 [3] = experiment: Inhibition of iNOS mRNA expression in LPS-stimulated mouse RAW264.7 cells at 0.1 to 20 ug/mL by RT-PCR analysis
RAW264.7 [4] = experiment: Inhibition of iNOS mRNA expression in IFN-gamma-stimulated mouse RAW264.7 cells at 0.1 to 20 ug/mL by RT-PCR analysis
RAW264.7 [5] = experiment: Antiinflammatory activity in LPS-stimulated mouse RAW264.7 cells assessed as inhibition of nitric oxide production at 200 ug/mL after 18 hrs by Griess reagent-based ELISA
RAW264.7 [6] = experiment: Antiinflammatory activity in IFN-gamma-stimulated mouse RAW264.7 cells assessed as inhibition of nitric oxide production at 200 ug/mL after 18 hrs by Griess reagent-based ELISA

Q: `C=C(C)C(OC(=O)/C=C/c1ccc(OC(C)=O)cc1)C1C/C(=C/CO[C@@H]2O[C@H](COC(C)=O)[C@@H](OC(C)=O)[C@H](OC(C)=O)[C@H]2OC(C)=O)C(=O)O1` (stereo partly specified) was tested. Which inhibition (RAW264.7 [1]) did it give?
A: The inhibition was “Dose-dependent effect”.

Q: What about the inhibition (RAW264.7 [2]) of the same compound?
A: Its inhibition is “Dose-dependent effect”.

Q: And the inhibition (RAW264.7 [3])?
A: The inhibition was “Active”.

Q: And the inhibition (RAW264.7 [4])?
A: The inhibition was “Active”.

Q: What does the source list for `C=C(C)C(OC(=O)/C=C/c1ccc(O)cc1)C1C/C(=C/CO[C@@H]2O[C@H](CO)[C@@H](O)[C@H](O)[C@H]2O)C(=O)O1` (stereo partly specified)?
A: inhibition (RAW264.7 [5]): inactive; inhibition (RAW264.7 [6]): inactive
